Reference: PubChem BioAssay (NCI)
“And” between values parts separate entries of the source, which are not always exact repeats. Equal values may be shown once.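 These data come from cells grown in 96-well plates and exposed to compound for 48 hours at five concentrations. The concentration for 50% growth inhibition is given as GI50. The concentration for full growth arrest is given as TGI.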

What was measured:
Assay in all cases: inhibition of tumour cell growth, NCI panel, 48 h
MDA-MB-435 = tested on: MDA-MB-435
ACHN renal = tested on: ACHN renal
OVCAR-4 ovarian = tested on: OVCAR-4 ovarian
HL-60(TB) leukemia = tested on: HL-60(TB) leukemia
BT-549 breast = tested on: BT-549 breast
TK-10 renal = tested on: TK-10 renal
U251 CNS = tested on: U251 CNS
OVCAR-3 ovarian = tested on: OVCAR-3 ovarian
IGROV1 ovarian = tested on: IGROV1 ovarian
CCRF-CEM leukemia = tested on: CCRF-CEM leukemia

Row | Compound | TGI (MDA-MB-435) [µM] | TGI (ACHN renal) | TGI (OVCAR-4 ovarian) [µM] | TGI (HL-60(TB) leukemia) [µM] | TGI (BT-549 breast) [µM] | TGI (TK-10 renal) | TGI (U251 CNS) [µM] | TGI (OVCAR-3 ovarian) [µM] | TGI (IGROV1 ovarian) [µM] | GI50 (MDA-MB-435) [nM] | GI50 (CCRF-CEM leukemia) [nM] | GI50 (ACHN renal) [nM] | GI50 (OVCAR-4 ovarian) [nM] | GI50 (BT-549 breast) [nM] | GI50 (TK-10 renal) [nM] | GI50 (U251 CNS) [nM] | GI50 (OVCAR-3 ovarian) [nM] | GI50 (IGROV1 ovarian) [nM] | TGI (CCRF-CEM leukemia) [µM] | GI50 (HL-60(TB) leukemia) [µM]
1 | CN(C)C=NC1CCC(C(C)(C)C)CC1 (stereo unspecified) | 33.3 | 43.8 µM | 51.1 | 33.2 | 34 | 38.6 µM | 31.2 | 28.8 | 37.9 | – | – | – | – | – | – | – | – | – | – | –
2 | CC[C@]1(O)CC2CN(CCc3c([nH]c4ccccc34)[C@@](C(=O)OC)(c3cc4c(cc3OC)N(C=O)[C@H]3[C@@](O)(C(=O)OC)[C@H](OC(C)=O)[C@]5(CC)C=CCN6CC[C@]43[C@@H]65)C2)C1 (stereo partly specified) | < 0.005 | > 50 µM | > 50 | – | 0.149 | 9.86 µM | – | – | > 50 | < 5 | < 5 | 235 | 6.53 | 6.65 | 19.2 | < 5 | < 5 | 33.4 | – | –
3 | N#C/C(=C\c1cc(O)ccc1O)C(N)=O | – | > 100 µM | > 100 | 34.6 | – | > 100 µM | > 100 | > 100 | > 100 | – | – | – | – | – | – | – | – | – | 53.9 | –
4 | O=Cc1c(-c2ccccc2)[nH]c2ccccc2c1=O | 88.1 | > 100 µM | > 100 | – | > 100 | > 100 µM | > 100 | > 100 | > 100 | – | – | – | – | – | – | – | – | – | – | –
5 | Cc1cc(=O)n(-c2c(C)cccc2Cl)c(/C=C(\O)c2ccncc2)n1 | – | > 100 µM | > 100 | > 100 | – | > 100 µM | > 100 | > 100 | > 100 | – | – | – | – | – | – | – | – | – | > 100 | –
6 | CC(=O)OC(C)(C)/C=C/C(=O)[C@](C)(O)[C@H]1[C@H](O)C[C@@]2(C)[C@@H]3CC=C4[C@@H](C=C(O)C(=O)C4(C)C)[C@]3(C)C(=O)C[C@]12C | 0.194 | 0.25 µM and 0.0794 µM | – | – | 0.0846 | 0.15 µM and 0.204 µM | – | – | – | 40.4 | – | 30.6 | – | – | – | – | – | – | – | –
7 | O=C(CO[N+](=O)[O-])OC/C=C/c1ccccc1 | – | > 100 µM | – | 60.6 | – | > 100 µM | > 100 | > 100 | > 100 | – | – | – | – | – | – | – | – | – | > 100 | –
8 | C/C(=N\n1c(O)c(C#N)cc(C#N)c1=O)c1ccncc1 | > 100 | > 100 µM | – | – | – | > 100 µM | > 100 | > 100 | > 100 | > 100000 | > 100000 | > 100000 | – | – | > 100000 | > 100000 | > 100000 | > 100000 | > 100 | –
9 | CC1CCC(=O)C(C(O)CC2CC(=O)N(c3ccccc3)C(=O)C2)C1 (stereo unspecified) | – | > 100 µM | > 100 | > 100 | – | > 100 µM | > 100 | > 100 | > 100 | – | – | – | – | – | – | – | – | – | > 100 | –
10 | CC(=O)OCC1OC(OCc2ccccc2)C(Br)C(OC(C)=O)C1OC(C)=O (stereo unspecified) | – | > 100 µM | > 100 | > 100 | – | > 100 µM | > 100 | > 100 | > 100 | – | – | – | – | – | – | – | – | – | > 100 | –
11 | Cc1ccc(Cl)cc1NC(=O)c1cc2ccccc2cc1O | – | 2.8 µM | > 100 | 0.768 | 1.28 | 4.46 µM | 4.12 | 1.02 | 3.95 | – | 733 | 351 | 409 | 294 | 948 | 319 | 313 | 189 | 2.84 | 0.267
12 | COc1cc2c(cc1O)CN1CCC23C=C[C@@H](O)CC13 (stereo partly specified) | – | > 100 µM | > 100 | 38 | – | > 100 µM | > 100 | > 100 | > 100 | – | – | – | – | – | – | – | – | – | 81.3 | –
13 | CCOc1ccc(OCC)c([P+](c2ccccc2)(c2ccccc2)c2ccccc2)c1 | – | 10.5 µM | 29 | 0.529 | – | 12 µM | 10.8 | 2.74 | 13.3 | – | – | – | – | – | – | – | – | – | 14.7 | –
14 | O=S(=O)(c1ccccc1)N1CN2CN(C1)CN(S(=O)(=O)c1ccccc1)C2 | > 100 | > 100 µM | > 100 | > 100 | > 100 | > 100 µM | > 100 | > 100 | > 100 | – | – | – | – | – | – | – | – | – | – | –
15 | O=C(Nc1cccc(-n2cc(-c3ccncc3)c(-c3ccc(O)c(Cl)c3)n2)c1)c1cc(C(F)(F)F)cc(C(F)(F)F)c1 | > 50 | > 50 µM | > 50 | 27.4 | 46.6 | > 50 µM | > 50 | – | > 50 | 4430 | 2210 | 2790 | 3310 | 4340 | 10900 | 2540 | – | 11200 | > 50 | 9.4
16 | CN(NC1OC(CO)C(O)C(O)C1O)c1ccccc1 (stereo unspecified) | – | > 100 µM | > 100 | > 100 | – | > 100 µM | > 100 | > 100 | > 100 | – | – | – | – | – | – | – | – | – | > 100 | –
17 | CCN(CC)c1ccc(C2NC(=O)c3ccccc3N2)cc1 (stereo unspecified) | 3.44 | > 100 µM | > 100 | – | > 100 | > 100 µM | > 100 | > 100 | > 100 | – | – | – | – | – | – | – | – | – | 3.38 | –
18 | CC(=O)Nc1ccc(/C=C2\N=C(c3ccccc3)OC2=O)cc1 | – | > 100 µM | > 100 | > 100 | – | > 100 µM | > 100 | – | > 31.6 | – | – | – | – | – | – | – | – | – | > 100 | –
19 | COc1cc(/C=C/C(=O)/C=C/c2cc3ccc(Cl)cc3n(Cc3ccccc3)c2=O)ccc1O | 4.32 | 2.62 µM | 37.8 | – | 4.53 | 5.5 µM | 2.55 | 2.43 | 4.53 | 862 | 1400 | 1330 | 2480 | 1690 | 2440 | 1170 | 710 | 1740 | > 100 | –
20 | COC1OC(CBr)C(OC(=O)c2ccccc2)C(OS(=O)(=O)c2ccc(C)cc2)C1Br (stereo unspecified) | – | > 100 µM | > 100 | > 100 | – | > 100 µM | > 100 | > 100 | – | – | – | – | – | – | – | – | – | – | > 100 | –
